# In ChEMBL document CHEMBL4476876, “Compounds for the modulation of myc activity” (2018):
# Tests used:
# [1] = test system: NCI-H2171; experiment: Antiproliferative activity against human NCI-H2171 cells after 72 hrs by ATPlite assay; format: functional, cell-based; conditions: NCI-H2171, 72 h
# [2] = target: Myc proto-oncogene protein (Homo sapiens, UniProt P01106); experiment: Inhibition of human c-Myc assessed as reduction in c-Myc/Max/Ebox DNA complex formation using pre-formed complex of c-Myc and biotinylated DNA containing single Ebox-sequence followed by compound addition and further addition of his6-tagged c-Max and incubated for 2 hrs by AlphaScreen assay
# Chain of Myc proto-oncogene protein (P01106 whole entry): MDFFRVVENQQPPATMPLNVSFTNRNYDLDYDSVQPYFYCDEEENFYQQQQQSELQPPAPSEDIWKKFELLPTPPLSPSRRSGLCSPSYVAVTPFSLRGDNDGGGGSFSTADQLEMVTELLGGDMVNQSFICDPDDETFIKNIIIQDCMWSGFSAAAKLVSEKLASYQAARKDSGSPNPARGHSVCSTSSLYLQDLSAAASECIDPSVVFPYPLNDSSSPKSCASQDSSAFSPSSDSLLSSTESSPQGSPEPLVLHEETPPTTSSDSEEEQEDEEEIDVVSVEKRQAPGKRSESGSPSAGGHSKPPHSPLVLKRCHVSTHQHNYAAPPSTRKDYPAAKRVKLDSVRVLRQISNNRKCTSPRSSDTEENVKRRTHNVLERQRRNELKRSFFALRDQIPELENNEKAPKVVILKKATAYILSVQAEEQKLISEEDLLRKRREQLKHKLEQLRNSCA
Structure (SMILES),IC50 [1] [nM],IC50 [2] [nM]
CCN1[C@H](C)Cc2c(sc(NC(C)=O)c2-c2nc3c(C(F)F)nccc3s2)[C@H]1C,< 500,
O=C(CC[N+]12CCN(CC1)CC2)Nc1sc2c(c1-c1nc3cnccc3s1)CCNC2,,< 500
CC[C@H](C)NCCC(=O)Nc1sc2c(c1-c1nc3cnccc3s1)C[C@H](C)NC2,< 500,
CC[C@H](C)NCCC(=O)Nc1sc2c(c1-c1nc3cnccc3s1)CN[C@H](C)C2,< 500,
